Data set [1] has as its system Staphylococcus aureus (Oxford). Put plainly: In vitro minimum inhibitory concentration, S. aureus (Oxford) (Test 3). The class given is cell-based. As to conditions: tryptone soya broth, approximately 10^5 organisms per tube, 37° C.; for MIC: Staphylococcus aureus. The protocol:
(§1) For each test compound, a range of concentrations in tryptone soya broth was prepared. Each test-tube containing a different concentration of the test compound within the range was inoculated with the test organism selected from Staphylococcus aureus (Oxford) or Escherichia coli B (Ennis) (approximately 10^5 organisms per tube) and after incubation at 37° C., the lowest concentration of test compound within the range required to prevent the growth of the test organism was recorded as the minimum inhibitory concentration for that compound and that organism.

Data set [2] concerns Escherichia coli B (Ennis). Put plainly: In vitro minimum inhibitory concentration, E. coli B (Ennis) (Test 3). Conditions: tryptone soya broth, approximately 10^5 organisms per tube, 37° C.; for MIC: Escherichia coli. The class given is cell-based. The protocol: as §1
Data set [3] has as its system Staphylococcus aureus Smith. Put plainly: Mouse treated orally, Staphylococcus aureus Smith infection (Test 1). As to conditions: 168 h, oral, dosed 1, 4, 24, 30 and 48 hours after infection, observed seven days, test compound, read-out: In vivo CD50 (oral). The protocol:
Mice were injected intra-peritoneally with Staphylococcus aureus Smith suspended in mucin (0.5 ml). This infection represented approximately 100 times the minimum dose calculated to kill 100% of mice. The mice were each treated orally with 16, 31, 62.5, 125 or 250 mg/kg animal body weight doses of a compound of general formula I. Each mouse was dosed 1, 4, 24, 30 and 48 hours after infection, with the selected dose.
(§2) The term "CD50" means the dose calculated to cure 50% of the mice treated.

For data set [4], the system named is Staphylococcus aureus Smith. Put plainly: Mouse treated subcutaneously, Staphylococcus aureus Smith infection (Test 2). The class given is in vivo. As to conditions: sc, 168 h, read-out: CD50 (subcutaneous). The protocol: as §2
Mice were infected intra-peritoneally with Staphylococcus aureus Smith [approximately 100 times the minimum dose lethal to 100% of mice infected] suspended in mucin (0.5 ml).
The results obtained from a compound of general formula I were compared with the results obtained from spiramycin I used as a standard compound.

Data set [5] is described as follows: Mouse oral toxicity. As to conditions: in vivo. On the procedure: Mice were each treated orally with one of the compounds of general formula I, and they were observed during the next 3 days.
The LD50 figures obtained (doses lethal to 50% of mice treated) are shown in Table II, expressed in mg/kg animal body weight. None of the mice died during the experiment even at doses of 1000 mg/kg animal body weight.

Usually MIC stands for the lowest concentration found to suppress growth. A lower MIC goes with greater potency. What is called LD50 is the dose at which mortality reaches 50%. Read a low LD50 as greater toxicity.

Converted amounts (≈) assume the structure as drawn. Structures can show the parent of a compound that is named as a salt.

In the case of `CCOC(=O)CCC(=O)OC1C(OC2C(CC=O)CC(C)C(OC3CCC(N(C)C)C(C)O3)/C=C/C=C/CC(C)OC(=O)CC(O)C2OC)OC(C)C(OC2CC(C)(O)C(O)C(C)O2)C1N(C)C` (stereo not drawn) [A, 2'-ethyl succinate of spiramycin I], the MIC in data set [1] is 1.25 µg/mL; in data set [2] it was 62 µg/mL. Besides, the ED50 in data set [3] came out at 88 mg/kg; in data set [4] (mouse, subcutaneous, 1, 4, 24, 30 and 48 hours after infection, observed seven days), 17.5 mg/kg. Moreover, the LD50 at 72 h in data set [5] was greater than 1000 mg/kg.

Take `CCOC(=O)CCCC(=O)OC1C(OC2C(CC=O)CC(C)C(OC3CCC(N(C)C)C(C)O3)/C=C/C=C/CC(C)OC(=O)CC(O)C2OC)OC(C)C(OC2CC(C)(O)C(O)C(C)O2)C1N(C)C` (stereo not drawn) [B, 2'-ethyl glutarate of spiramycin I]: the minimum inhibitory concentration (MIC) in data set [1] was determined as 1.25 µg/mL (≈ 1.27 µM); in data set [2] it was 62 µg/mL (≈ 62.9 µM). In addition, the ED50 in data set [3] was 135 mg/kg. The LD50 at 72 h in data set [5] is greater than 1000 mg/kg.

Consider `COC(=O)CCC(=O)OC1C(OC2C(CC=O)CC(C)C(OC3CCC(N(C)C)C(C)O3)/C=C/C=C/CC(C)OC(=O)CC(O)C2OC)OC(C)C(OC2CC(C)(O)C(O)C(C)O2)C1N(C)C` (stereo not drawn) [C, 2'-methyl succinate of spiramycin I], for which the MIC in data set [1] was determined as 2.5 µg/mL; in data set [2], 250 µg/mL. The ED50 in data set [3] stood at 62 mg/kg.

On to `COC(=O)CC(C)C(=O)OC1C(OC2C(CC=O)CC(C)C(OC3CCC(N(C)C)C(C)O3)/C=C/C=C/CC(C)OC(=O)CC(O)C2OC)OC(C)C(OC2CC(C)(O)C(O)C(C)O2)C1N(C)C` (stereo not drawn) [Compound L, 2'-methyl (RS)-(3-methyl)succinate of spiramycin I], for which the minimum inhibitory concentration (MIC) in data set [1] was found to be 2.5 µg/mL (≈ 2.57 µM); in data set [2], 250 µg/mL (≈ 257 µM). In addition, the ED50 in data set [3] stood at 58 mg/kg.

For `CCCOC(=O)CCC(=O)OC1C(OC2C(CC=O)CC(C)C(OC3CCC(N(C)C)C(C)O3)/C=C/C=C/CC(C)OC(=O)CC(O)C2OC)OC(C)C(OC2CC(C)(O)C(O)C(C)O2)C1N(C)C` (stereo not drawn) [D, 2'-propyl succinate of spiramycin I], the MIC stood at 2.5 µg/mL in data set [1] and 250 µg/mL in data set [2]. For the same compound, the ED50 in data set [3] amounted to 90 mg/kg.

With `COC(=O)CCCC(=O)OC1C(OC2C(CC=O)CC(C)C(OC3CCC(N(C)C)C(C)O3)/C=C/C=C/CC(C)OC(=O)CC(O)C2OC)OC(C)C(OC2CC(C)(O)C(O)C(C)O2)C1N(C)C` (stereo not drawn) [E, 2'-methyl glutarate of spiramycin I], the MIC in data set [1] turned out to be 2.5 µg/mL (≈ 2.57 µM); in data set [2] it was 125 µg/mL (≈ 129 µM). In addition, the ED50 in data set [3] worked out at 125 mg/kg.

As for `COC(=O)/C=C/C(=O)OC1C(OC2C(CC=O)CC(C)C(OC3CCC(N(C)C)C(C)O3)/C=C/C=C/CC(C)OC(=O)CC(O)C2OC)OC(C)C(OC2CC(C)(O)C(O)C(C)O2)C1N(C)C` (stereo not drawn) [F, 2'-methyl fumarate of spiramycin I], the MIC is 2.5 µg/mL in data set [1] and 250 µg/mL in data set [2]. Also, in data set [3], the ED50 came out at 125 mg/kg.

For the compound `COC1C(O)CC(=O)OC(C)C/C=C/C=C/C(OC2CCC(N(C)C)C(C)O2)C(C)CC(CC=O)C1OC1OC(C)C(OC2CC(C)(O)C(O)C(C)O2)C(N(C)C)C1OC(=O)CCC(=O)SC` (stereo not drawn) [G, 2'-S-methyl thiosuccinate of spiramycin I], the MIC turned out to be 2.5 µg/mL (≈ 2.57 µM) in data set [1] and 500 µg/mL (≈ 514 µM) in data set [2]. The ED50 in data set [3] is 114 mg/kg.

Take `COC1C(O)CC(=O)OC(C)C/C=C/C=C/C(OC2CCC(N(C)C)C(C)O2)C(C)CC(CC=O)C1OC1OC(C)C(OC2CC(C)(O)C(O)C(C)O2)C(N(C)C)C1OC(=O)CCC(=O)OC1CCCCC1` (stereo not drawn) [H, 2'-cyclohexyl succinate of spiramycin I]: the MIC in data set [1] was found to be 2.5 µg/mL; in data set [2] it was 250 µg/mL. Moreover, the ED50 in data set [3] was determined as 67 mg/kg.

In the case of `CCOC(=O)CC(=O)OC1C(OC2C(CC=O)CC(C)C(OC3CCC(N(C)C)C(C)O3)/C=C/C=C/CC(C)OC(=O)CC(O)C2OC)OC(C)C(OC2CC(C)(O)C(O)C(C)O2)C1N(C)C` (stereo not drawn) [J, 2'-ethyl malonate of spiramycin I], the MIC in data set [1] was 5 µg/mL (≈ 5.22 µM); in data set [2], 250 µg/mL (≈ 261 µM). In addition, in data set [3], the ED50 amounted to 120 mg/kg.

On to `COC1C(O)CC(=O)OC(C)C/C=C/C=C/C(OC2CCC(N(C)C)C(C)O2)C(C)CC(CC=O)C1OC1OC(C)C(OC2CC(C)(O)C(O)C(C)O2)C(N(C)C)C1OC(=O)CCC(=O)Oc1ccccc1` (stereo not drawn) [K, 2'-phenyl succinate of spiramycin I], for which the results for the MIC in data set [1] and in data set [2] were 2.5 µg/mL and 250 µg/mL, respectively. Besides, in data set [3], the ED50 came out at 76 mg/kg.

With `COC1C(O)CC(=O)OC(C)C/C=C/C=C/C(OC2CCC(N(C)C)C(C)O2)C(C)CC(CC=O)C1OC1OC(C)C(OC2CC(C)(O)C(O)C(C)O2)C(N(C)C)C1OC(=O)CCC(=O)OCCc1ccccc1` (stereo not drawn) [M, 2'-(2-phenylethyl) succinate of spiramycin I], the MIC amounted to 2.5 µg/mL in data set [1] and 250 µg/mL in data set [2]. Besides, in data set [3], the ED50 was determined as 64 mg/kg.

Take `COC1C(O)CC(=O)OC(C)C/C=C/C=C/C(OC2CCC(N(C)C)C(C)O2)C(C)CC(CC=O)C1OC1OC(C)C(OC2CC(C)(O)C(O)C(C)O2)C(N(C)C)C1OC(=O)CCC(=O)OC(C)(C)C` (stereo not drawn) [N, 2'-tertiary-butyl succinate of spiramycin I]: the MIC was 2.5 µg/mL in data set [1] and 125 µg/mL in data set [2]. Also, in data set [3], the ED50 was 130 mg/kg.

As for `COC1C(O)CC(=O)OC(C)C/C=C/C=C/C(OC2CCC(N(C)C)C(C)O2)C(C)CC(CC=O)C1OC1OC(C)C(OC2CC(C)(O)C(O)C(C)O2)C(N(C)C)C1OC(=O)CCC(=O)OC(C)C` (stereo not drawn) [O, 2'-isopropyl succinate of spiramycin I], the values for the MIC in data set [1] and in data set [2] were 1.25 µg/mL and 125 µg/mL, respectively. The ED50 in data set [3] amounted to 96 mg/kg.

On to `COC1C(O)CC(=O)OC(C)C/C=C/C=C/C(OC2CCC(N(C)C)C(C)O2)C(C)CC(CC=O)C1OC1OC(C)C(OC2CC(C)(O)C(O)C(C)O2)C(N(C)C)C1O` (stereo not drawn) [Spiramycin I, spiramycin I, reference compound], for which the ED50 in data set [4] is 5.8 mg/kg.

For Spiramycin [reference compound], the “In vitro minimum inhibitory concentration, S. aureus (Oxford)” value in data set [1] was in the range of 0.62 to 2.5 µg/mL. Besides, the “In vitro minimum inhibitory concentration, Escherichia coli B (Ennis)” value in data set [2] lay in the range of 62 to 250 µg/mL.

(Values after US4174391A, “Spiramycin esters” (May & Baker Limited, priority 1976, dated 1979).)
